Assay results from BindingDB's records for doi:10.1016/j.ejmech.2019.05.053 (East China University of Science and Technology, 2019).
pIC50: −log10 of the molar value.

Experiment: Reversal of P-gp-mediated multidrug resistance in human MCF7/Dox cells assessed as potentiation of doxorubicin-induced cytotoxicity by measuring doxorubicin IC50 at 12.5 uM after 48 hrs by MTT assay (Rvb = 51.19 +/- 0.95 microM)

| Compound | pIC50 |
| --- | --- |
| COc1cc(O)c(C(=O)/C=C/c2cccc(N3CCN(C)CC3)c2)c(OC)c1 | 4.75 |
| COc1cc(O)c(C(=O)/C=C/c2ccc(N3CCN(C(=O)OC(C)(C)C)CC3)cc2)c(OC)c1 | 4.23 |
| COc1cc(OC)c(C(=O)/C=C/c2cccc(N3CCOCC3)c2)c(O)c1CC=C(C)C | 4.50 |
| CCCCc1c(OC)cc(OC)c(C(=O)/C=C/c2cccc(N3CCNCC3)c2)c1O | 5.45 |
| COc1cc(O)c(C(=O)/C=C/c2cccc(N3CCN(C(=O)c4ccc(OC)c(OC)c4)CC3)c2)c(OC)c1 | 4.37 |
| COc1cc(OC)c(C(=O)/C=C/c2ccc(Cl)cc2)c(O)c1CC=C(C)C | 4.66 |
| COc1cc(OC)c(C(=O)/C=C/c2ccc(N(C)C)cc2)c(O)c1CC=C(C)C | 4.76 |
| COc1ccc(/C=C/C(=O)c2c(OC)cc(OC)c(CC=C(C)C)c2O)cc1 | 4.68 |
| CCc1c(OC)cc(OC)c(C(=O)/C=C/c2cccc(N3CCNCC3)c2)c1O | 5.33 |
| COc1cc(OC)c(C(=O)/C=C/c2cccc(N3CCNCC3)c2)c(O)c1CC=C(C)C | 5.99 |
| COc1cc(O)c(C(=O)/C=C/c2cccc(N3CCOCC3)c2)c(OC)c1 | 4.73 |
| COc1ccc(C(=O)/C=C/c2cccc(N3CCNCC3)c2)c(OC)c1 | 5.31 |
| COc1cccc(/C=C/C(=O)c2c(OC)cc(OC)c(CC=C(C)C)c2O)c1 | 5.10 |
| COc1cc(OC)c(C(=O)/C=C/c2cccc(N3CCN(C(=O)OC(C)(C)C)CC3)c2)c(O)c1CC=C(C)C | 4.70 |
| COc1cc(OC)c(C(=O)/C=C/c2ccc(N3CCN(C(=O)OC(C)(C)C)CC3)cc2)c(O)c1CC=C(C)C | 4.28 |
| COc1cc(OC)c(C(=O)/C=C/c2ccc(OC)c(OC)c2OC)c(O)c1CC=C(C)C | 4.56 |
| COc1cc(OC)c(C(=O)/C=C/c2cccc(F)c2)c(O)c1CC=C(C)C | 4.90 |
| CCCc1c(OC)cc(OC)c(C(=O)/C=C/c2cccc(N3CCNCC3)c2)c1O | 5.29 |
| COc1c(C)c(O)c(C)c(O)c1C(=O)/C=C/c1ccccc1 [CHEBI:70658] | 4.61 |
| COc1cc(OC)c(C(=O)/C=C/c2cccc(C(F)(F)F)c2)c(O)c1CC=C(C)C | 5.20 |
| CCCCCc1c(OC)cc(OC)c(C(=O)/C=C/c2cccc(N3CCNCC3)c2)c1O | 4.63 |
| COc1cc(O)c(C(=O)/C=C/c2cccc(N3CCNCC3)c2)c(OC)c1 | 5.58 |
| COc1cc(OC)c(C(=O)/C=C/c2cccc(Cl)c2)c(O)c1CC=C(C)C | 5.03 |
